The source of these data is patent US20250223560A1, “NOX4 INHIBITOR COMPOSITIONS AND METHODS FOR REGENERATION OF DYSTROPHIC MUSCLE” (FULCRUM THERAPEUTICS, INC., priority 2022, published 2025).

Series [1] has as its system Bone Marrow Derived Mesenchymal Stem Cells, human (BM-MSC); myofibroblast content. As to the kind of experiment: Myofibroblast reduction phenotype in TGF-beta-1 fibrogenic differentiation culture (high-content imaging). Format: cell-based. The method, then:
Bone Marrow Derived Mesenchymal Stem Cells, human (BM-MSC, ATCC PCS-500-012) were cultured in medium composed of Mesenchymal Stem Cell Basal Medium foe Adipose, Umbilcal and Bone Marrow-derived MSCs (ATCC PCS-400030 and Mesenchymal Stem Cell Growth for Bone Marrow-derived MSCs (ATCC PCS-500-041). Cells were seeded at a density of 15,000 cells/well in a 96-well format.
To induce fibrogenic differentiation BM-MSCs were cultured in a medium composed by Dulbecco's Modified Eagle Medium, 2% horse serum (HS) (Sigma H1270) and 5-10 ng/ml TGF-beta-1 (PreproTech 100-21). Cells were cultured in basal media for 2 days before being switched to fibrogenic differentiation media for 5 days, after which they were taken down for downstream assays. Compound treatment was added when media was switched to fibrogenic differentiation media, cells were treated with 0.1% DMSO if not receiving compound.
Cells were fixed in 4% PFA for 10 min at RT. Fixed cells were washed three times in 1×PBS and incubated in permeabilization solution (0.5% Triton X-100 in 1×PBS) for 10 min. Unspecific binding were saturated by incubating samples in blocking solution (5% donkey serum in 1×PBS) for 1 h. The cells were incubated at RT for 1 hour with gentle shaking in the presence of primary antibody against, alpha-smooth muscle actin (1:1000, Sigma™ A5228). The cells were washed three times with 0.05% Tween-20 in 1×PBS and incubated, for 1 hour at RT, with host-specific secondary antibodies in addition to counterstaining for Alexa Fluor Plus 750 Phalloidin (1:2000, Invitrogen™, A30105) and DAPI (1:2000). Primary and secondary antibodies were diluted according to the manufacturer's recommendations in blocking solution+0.1% Triton X-100. Finally, the cells were washed three times with 0.05% Tween-20 in 1×PBS, washed twice with 1×PBS and stored at 4° C. Images were acquired on a Thermo Scientific™ CellInsight™ CX7LED high content analysis (HCA) imaging instrument using a 10× objective. Nine fields per well were captured for quantification.
Columbus™ software (version 2.9.1, Perkin Elmer®) was used for analysis of acquired images. A custom analysis pipeline was constructed to quantify the percentage of myofibroblasts within the well. First, nuclei were segmented using “Method B” and intensity and morphology properties were calculated using standard settings. Second, viable nuclei were identified by gating on nuclei intensity, area, and roundness of the segmented objects. Next, a region of interest was then defined around the selected viable nuclei by expanding the outer boarder by […]. STAR morphology and SER texture properties were calculated within the region of interest for the alpha-smooth muscle actin and phalloidin channels using the following parameters: profile width=4 px, scale=1 px, Kernel normalization. The calculated morphology and texture properties were used to train a linear classifier consisting of two classes, myofibroblasts and mesenchymal stem cells, by selecting >100 objects in each negative control (DMSO) and positive control (fibrogenic differentiation media) conditions. The linear classifier was then applied to the untrained test wells using a batch analysis to calculate the percentage of myofibroblasts within each image using a formula output (myofibroblasts:number of objects/viable nuclei:number of objects)*100. Results were averaged across the nine fields imaged per well.
The initial six NOX4 inhibitors were assessed in replicate experiments for both potency of myofibroblast reducing activity and an associated IC50 for the myofibroblast reduction phenotype was determined (Table 1).

The conditions of series [2]: as described; cited from earlier work.

SMILES strings stand for the structures. Read-outs that look alike come from different tables or passages of the source.

The IC50 is the concentration at which inhibition is half-maximal. In the case of `CN(C)c1cccc(-c2c3c(=O)n(-c4ccccc4Cl)[nH]c3cc(=O)n2C)c1` [FTX1620, Setanaxib], the concentration for half-maximal inhibition (IC50) in series [1] (Homo sapiens, BMMSC, first experiment, read-out: IC50 Phenotype (myofibroblast reduction)) was found to be 77.3 nM; in series [1] (Homo sapiens, BMMSC, replicate experiment, read-out: IC50 Phenotype Replicate), 126 nM; in series [1] (replicate experiment, read-out: IC50 Phenotype Replicate) it was 126 nM. Besides, the “reduction of myofibroblast content (concentration-response)” value in series [1] (treated cells in culture) is “reduced the myofibroblast content of treated cells in a dose-responsive manner”. For the same compound, the oral bioavailability result in series [2] was “orally bioavailable”.
